# Assay results published in US20090232735A1, “USE OF FRUCTOSE-BASED THERAPIES FOR THE TREATMENT OF CANCER” (CEDARS-SINAI MEDICAL CENTER, priority 2005, published 2009).
# Tests used:
# [1] = tested on: pancreatic cancer development; conditions: cited from earlier work
# transketolase (TKK) = test: Transketolase expression by Western blot in PANC-1 cells; format: cell-based, human; conditions: PANC-1, 5.5 mM fructose, 24 h and 48 h
# Experimental: FIG. 33 depicts Western blot analysis of transketolase expression in pancreatic cancer PANC-1 cells following incubation in 2 mM glucose (lanes 1 & 4), 5.5 mM glucose (lanes 2 & 5), and 5.5 mM fructose for 24 h, and 48 h, respectively, in accordance with an embodiment of the present invention. Quantitation of TKK protein levels is depicted in the lower panel.
# The inventors believe that fructose-treatment of pancreatic cancer cells led to an increase in TKK-driven nucleic acid synthesis, and thus fructose-treatment would result in an increase in either PANC-1 TKK expression and/or activity in comparison to equivalent glucose concentrations. Western blot analysis on protein lysates derived from fructose-, and glucose-treated PANC-1 cells were performed (5.5 mM fructose, and glucose for 24, and 48 h as per previous protocol) using a specific TKK antibody, and compared TKK expression in the fructose-, and glucose-treated PANC-1 cells. […] After gentle mixing the absorbance of the mixture was measured at 10 min intervals for 2 h at 340 nm. Transketolase activity was then derived from the difference in absorbance at 10, and 80 minutes, and expressed as nmol/min/million cells. […] Pancreatic cancer proliferation rates were then measured using the MTS assay (FIG. 35).
# GLUT-5 mRNA = GLUT-5 mRNA by real-time RT-PCR in PANC-1 cells; format: cell-based, human
# Experimental: FIG. 22 depicts […] mRNA levels in pancreatic cancer cells in accordance with an embodiment of the present invention. Quantitative real-time RT-PCR was used to measure GLUT-5 mRNA levels in pancreatic cancer cells (PANC-1), following culture in 2 mM glucose, 5.5 mM glucose, or 5.5 mM fructose for 4 h and 24 h.
# Brit J Biomed Sci 56(4): 285-292, 1999; Rogers S, Docherty S E, Slavin J L, Henderson and Best J D. Differential expression of GLUT12 in breast cancer and normal breast tissue. Cancer Letters 193(2): 225-233, 2003). […] Teal-time RT-PCR was used to measure GLUT-5 mRNA expression following 2 mM, and 5.5 mM glucose-, and 5.5 mM fructose-treatment for 4 h, and 24 h respectively. GLUT-5 mRNA was expressed as the fold-change relative to GLUT-5 mRNA levels in 2 mM glucose-treated cells. As depicted in FIG. 22, at 4 h, GLUT-5 mRNA levels were low in both the 5.5 mM glucose-, and fructose-treated PANC-1 cells. […] This agrees with other studies which have reported fructose-induced GLUT-5 mRNA expression in colon cancer (Gouyon F, Onesto C, Dalet V, Pages G, Leturque A, and Brot-Laroche E. Fructose modulates GLUT5 mRNA stability in differentiated Caco-2 cells: Role of cAMP-signalling pathway and PABP (polyadenylated-binding protein)-interacting protein (Paip) 2. J Biochem 375:167-174, 2003).
# [2] = tested on: proliferating cell nuclear antigen (PCNA); test: PCNA Western blot in PANC-1 cells; format: cell-based, human; conditions: PANC-1, 5.5 mM sugar, 48 h, compared to 2 mM glucose
# Experimental: FIG. 19 depicts PCNA expression in accordance with an embodiment of the present invention. PANC-1 cells were plated in 2 mM, and 5.5 mM glucose, or 5.5 mM fructose for 48 h, after which proliferating cell nuclear antigen (PCNA) levels were measured by Western blot analysis.
# Additionally, protein extracts were harvested in RIPA buffer from the PANC-1 cells following 2 mM, 5.5 mM glucose-, and fructose-treatment for 48 h, analyzed by Western blot, and immunoblotted using a specific monoclonal antibody to proliferating cell nuclear antigen (PCNA).
smiles,measurement,setting,value
O=C(CO)[C@@H](O)[C@H](O)[C@H](O)CO [fructose],relative risk of pancreatic cancer,"[1]; high fructose intake, women with increased BMI (>25) or sedentary lifestyle",3.17
same,increased risk of pancreatic cancer development,[1]; women reporting a high fructose-intake,57%
same,TKK levels higher than 5.5 mM glucose-treated cells,transketolase (TKK),~2 fold
same,GLUT-5 mRNA levels higher than in 2 mM glucose-treated cells,"GLUT-5 mRNA; PANC-1, 5.5 mM fructose, 24 h",1.5 fold
same,GLUT-5 mRNA levels higher than in 5.5 mM glucose-treated cells,"GLUT-5 mRNA; PANC-1, 5.5 mM fructose, 24 h",1.75 fold
same,GLUT-5 mRNA levels,"GLUT-5 mRNA; PANC-1, 5.5 mM sugar, 4 h",low
same,PCNA expression,[2],highest PCNA levels
